Results published in US10231954B2, “Neurodegenerative therapies” (LYTIX BIOPHARMA AS, priority 2014, dated 2019).
Where two headings read alike, the source gives them in different places.

Tests used:
Format in all cases: biochemical
IRR = IRR (Homo sapiens, UniProt P14616); assay: Kinase profiling IRR; conditions: for remaining activity at 100 µM: read-out: residual kinase activity, IRR
Excerpt: (§1) Any value less that 25 is considered to be highly significant inhibition.

IRAK1 = IRAK1 (Homo sapiens, UniProt P51617); assay: Kinase profiling IRAK1; conditions: for remaining activity at 100 µM: read-out: residual kinase activity, IRAK1
Excerpt: as §1

TIE2 = TIE2 (Homo sapiens, UniProt Q02763); assay: Kinase profiling TIE2; conditions: for remaining activity at 100 µM: read-out: residual kinase activity, TIE2
Excerpt: as §1

MARK1 = MARK1 (Homo sapiens, UniProt Q9P0L2); assay: Kinase profiling MARK1; conditions: for remaining activity at 100 µM: read-out: residual kinase activity, MARK1
Excerpt: as §1

MAPKAP-K3 = MAPKAP-K3 (Homo sapiens, UniProt Q16644); assay: Kinase profiling MAPKAP-K3; conditions: for remaining activity at 100 µM: read-out: residual kinase activity, MAPKAP-K3
Excerpt: as §1

TSSK1 = biological target: T1, TSSK1 (Homo sapiens, UniProt Q9BXA7); assay: Kinase profiling TSSK1; conditions: for remaining activity at 100 µM: read-out: residual kinase activity, TSSK1
T1 sequence (Q9BXA7 1-367): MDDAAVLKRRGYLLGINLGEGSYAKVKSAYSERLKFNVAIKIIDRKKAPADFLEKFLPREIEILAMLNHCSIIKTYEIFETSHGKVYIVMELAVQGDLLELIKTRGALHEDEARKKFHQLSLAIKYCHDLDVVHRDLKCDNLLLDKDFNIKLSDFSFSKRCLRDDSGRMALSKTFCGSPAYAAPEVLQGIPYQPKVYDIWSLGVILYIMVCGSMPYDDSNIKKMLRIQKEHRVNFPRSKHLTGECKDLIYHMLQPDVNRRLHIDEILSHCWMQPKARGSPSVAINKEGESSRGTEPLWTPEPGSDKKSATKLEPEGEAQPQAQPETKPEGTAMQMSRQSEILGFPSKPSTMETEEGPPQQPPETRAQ
Excerpt: as §1

MEKK1 = MEKK1 (Homo sapiens, UniProt Q13233); assay: Kinase profiling MEKK1; conditions: for remaining activity at 100 µM: read-out: residual kinase activity, MEKK1
Excerpt: as §1

ULK2 = biological target: T2, ULK2 (Homo sapiens, UniProt Q8IYT8); assay: Kinase profiling ULK2; conditions: for remaining activity at 100 µM: read-out: residual kinase activity, ULK2
T2 sequence (Q8IYT8 1-1036): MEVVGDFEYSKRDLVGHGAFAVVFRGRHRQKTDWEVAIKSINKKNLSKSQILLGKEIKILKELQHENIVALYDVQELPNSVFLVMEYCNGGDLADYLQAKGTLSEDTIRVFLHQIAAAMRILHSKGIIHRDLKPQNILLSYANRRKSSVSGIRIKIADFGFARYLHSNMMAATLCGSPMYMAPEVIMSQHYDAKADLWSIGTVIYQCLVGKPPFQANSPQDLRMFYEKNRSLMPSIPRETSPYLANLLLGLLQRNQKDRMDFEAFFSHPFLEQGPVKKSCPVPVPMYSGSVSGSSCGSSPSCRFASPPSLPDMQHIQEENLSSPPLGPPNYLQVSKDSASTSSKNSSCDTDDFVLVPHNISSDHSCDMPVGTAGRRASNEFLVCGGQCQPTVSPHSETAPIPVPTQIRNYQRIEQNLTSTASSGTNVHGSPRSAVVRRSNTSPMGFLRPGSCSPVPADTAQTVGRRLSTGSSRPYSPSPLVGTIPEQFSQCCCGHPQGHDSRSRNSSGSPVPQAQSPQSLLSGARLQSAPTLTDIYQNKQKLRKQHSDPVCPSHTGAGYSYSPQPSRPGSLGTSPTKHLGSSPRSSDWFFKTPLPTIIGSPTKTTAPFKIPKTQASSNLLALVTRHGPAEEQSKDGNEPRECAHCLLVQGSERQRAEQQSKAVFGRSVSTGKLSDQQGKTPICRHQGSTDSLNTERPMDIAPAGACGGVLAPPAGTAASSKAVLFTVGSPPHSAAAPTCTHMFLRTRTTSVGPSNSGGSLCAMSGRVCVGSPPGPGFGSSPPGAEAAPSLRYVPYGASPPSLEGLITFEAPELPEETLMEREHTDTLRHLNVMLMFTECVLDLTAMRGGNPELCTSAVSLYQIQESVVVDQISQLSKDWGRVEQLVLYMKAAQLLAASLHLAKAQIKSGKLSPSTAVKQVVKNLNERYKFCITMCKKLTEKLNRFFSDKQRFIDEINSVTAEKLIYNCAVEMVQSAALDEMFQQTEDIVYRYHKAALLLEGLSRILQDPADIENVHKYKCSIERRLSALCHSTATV
Excerpt: as §1

TGFBR1 = biological target: T3, TGFBR1 (Homo sapiens, UniProt P36897); assay: Kinase profiling TGFBR1; conditions: for remaining activity at 100 µM: read-out: residual kinase activity, TGFBR1
T3 sequence (P36897 34-503): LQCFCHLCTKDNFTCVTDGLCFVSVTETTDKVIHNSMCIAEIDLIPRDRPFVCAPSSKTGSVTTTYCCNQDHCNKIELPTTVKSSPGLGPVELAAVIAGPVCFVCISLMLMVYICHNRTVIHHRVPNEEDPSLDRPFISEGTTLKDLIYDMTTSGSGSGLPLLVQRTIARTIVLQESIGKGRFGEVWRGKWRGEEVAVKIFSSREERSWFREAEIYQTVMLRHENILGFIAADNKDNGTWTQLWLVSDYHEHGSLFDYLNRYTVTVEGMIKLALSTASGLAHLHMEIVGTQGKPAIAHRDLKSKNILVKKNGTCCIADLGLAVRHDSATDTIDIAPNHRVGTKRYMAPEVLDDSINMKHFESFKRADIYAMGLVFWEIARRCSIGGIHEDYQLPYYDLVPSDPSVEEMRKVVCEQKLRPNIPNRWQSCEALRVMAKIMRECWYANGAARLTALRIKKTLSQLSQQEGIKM
Excerpt: as §1

[1] = 100 micromolar inhibitor concentration, 100 is no change
[2] = 100 micromolar inhibitor, 100 = no change

Sequence of MARK1 (Q9P0L2 whole entry, species assumed): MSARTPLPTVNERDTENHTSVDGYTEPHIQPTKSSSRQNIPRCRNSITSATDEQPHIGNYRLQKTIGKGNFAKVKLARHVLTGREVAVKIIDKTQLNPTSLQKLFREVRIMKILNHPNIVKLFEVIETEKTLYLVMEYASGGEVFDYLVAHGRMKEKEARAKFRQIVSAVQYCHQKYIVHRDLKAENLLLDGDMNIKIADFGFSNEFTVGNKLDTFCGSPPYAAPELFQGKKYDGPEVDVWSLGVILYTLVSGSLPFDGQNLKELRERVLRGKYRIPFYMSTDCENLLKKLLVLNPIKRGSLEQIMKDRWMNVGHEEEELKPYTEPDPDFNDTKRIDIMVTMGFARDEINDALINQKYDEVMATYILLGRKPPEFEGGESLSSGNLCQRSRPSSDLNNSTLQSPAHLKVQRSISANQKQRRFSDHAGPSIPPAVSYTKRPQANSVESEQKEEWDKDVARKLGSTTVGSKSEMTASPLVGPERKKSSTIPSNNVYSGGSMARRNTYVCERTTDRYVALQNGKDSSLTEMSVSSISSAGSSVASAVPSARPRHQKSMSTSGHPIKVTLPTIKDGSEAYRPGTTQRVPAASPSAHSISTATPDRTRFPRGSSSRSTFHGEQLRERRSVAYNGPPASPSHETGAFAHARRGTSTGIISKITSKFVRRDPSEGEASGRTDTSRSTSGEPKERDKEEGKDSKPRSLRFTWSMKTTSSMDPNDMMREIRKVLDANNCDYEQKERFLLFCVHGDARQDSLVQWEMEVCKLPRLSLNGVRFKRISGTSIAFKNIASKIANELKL
Sequence of MAPKAP-K3 (Q16644 whole entry, species assumed): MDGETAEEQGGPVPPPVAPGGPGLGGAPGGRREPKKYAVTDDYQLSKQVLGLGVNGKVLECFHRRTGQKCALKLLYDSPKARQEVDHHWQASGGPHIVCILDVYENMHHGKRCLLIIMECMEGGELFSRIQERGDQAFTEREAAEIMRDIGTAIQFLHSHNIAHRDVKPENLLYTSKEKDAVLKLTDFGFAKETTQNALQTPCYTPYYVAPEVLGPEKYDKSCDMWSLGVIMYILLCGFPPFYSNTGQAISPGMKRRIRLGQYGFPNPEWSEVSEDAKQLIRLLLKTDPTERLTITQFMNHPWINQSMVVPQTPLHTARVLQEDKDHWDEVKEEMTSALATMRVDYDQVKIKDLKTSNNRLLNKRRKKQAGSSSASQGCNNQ
Sequence of IRAK1 (P51617 whole entry, species assumed): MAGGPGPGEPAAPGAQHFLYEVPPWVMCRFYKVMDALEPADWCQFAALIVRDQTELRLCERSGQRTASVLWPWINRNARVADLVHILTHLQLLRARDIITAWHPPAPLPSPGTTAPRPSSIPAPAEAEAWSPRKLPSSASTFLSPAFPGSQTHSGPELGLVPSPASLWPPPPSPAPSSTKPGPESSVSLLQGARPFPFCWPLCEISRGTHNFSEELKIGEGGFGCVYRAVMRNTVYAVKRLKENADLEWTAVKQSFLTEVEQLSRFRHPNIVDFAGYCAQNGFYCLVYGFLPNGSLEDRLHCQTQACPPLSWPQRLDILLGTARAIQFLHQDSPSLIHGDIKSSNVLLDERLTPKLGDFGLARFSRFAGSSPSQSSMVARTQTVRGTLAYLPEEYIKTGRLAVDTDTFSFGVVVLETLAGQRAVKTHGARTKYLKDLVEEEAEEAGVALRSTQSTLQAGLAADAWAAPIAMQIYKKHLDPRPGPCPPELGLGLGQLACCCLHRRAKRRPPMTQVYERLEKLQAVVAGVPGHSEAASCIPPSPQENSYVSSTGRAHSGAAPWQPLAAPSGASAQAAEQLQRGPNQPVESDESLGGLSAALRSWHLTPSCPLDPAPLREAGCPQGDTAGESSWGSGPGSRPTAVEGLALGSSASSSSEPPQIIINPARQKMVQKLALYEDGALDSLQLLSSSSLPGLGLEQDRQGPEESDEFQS
Sequence of IRR (P14616 27-1297, species assumed): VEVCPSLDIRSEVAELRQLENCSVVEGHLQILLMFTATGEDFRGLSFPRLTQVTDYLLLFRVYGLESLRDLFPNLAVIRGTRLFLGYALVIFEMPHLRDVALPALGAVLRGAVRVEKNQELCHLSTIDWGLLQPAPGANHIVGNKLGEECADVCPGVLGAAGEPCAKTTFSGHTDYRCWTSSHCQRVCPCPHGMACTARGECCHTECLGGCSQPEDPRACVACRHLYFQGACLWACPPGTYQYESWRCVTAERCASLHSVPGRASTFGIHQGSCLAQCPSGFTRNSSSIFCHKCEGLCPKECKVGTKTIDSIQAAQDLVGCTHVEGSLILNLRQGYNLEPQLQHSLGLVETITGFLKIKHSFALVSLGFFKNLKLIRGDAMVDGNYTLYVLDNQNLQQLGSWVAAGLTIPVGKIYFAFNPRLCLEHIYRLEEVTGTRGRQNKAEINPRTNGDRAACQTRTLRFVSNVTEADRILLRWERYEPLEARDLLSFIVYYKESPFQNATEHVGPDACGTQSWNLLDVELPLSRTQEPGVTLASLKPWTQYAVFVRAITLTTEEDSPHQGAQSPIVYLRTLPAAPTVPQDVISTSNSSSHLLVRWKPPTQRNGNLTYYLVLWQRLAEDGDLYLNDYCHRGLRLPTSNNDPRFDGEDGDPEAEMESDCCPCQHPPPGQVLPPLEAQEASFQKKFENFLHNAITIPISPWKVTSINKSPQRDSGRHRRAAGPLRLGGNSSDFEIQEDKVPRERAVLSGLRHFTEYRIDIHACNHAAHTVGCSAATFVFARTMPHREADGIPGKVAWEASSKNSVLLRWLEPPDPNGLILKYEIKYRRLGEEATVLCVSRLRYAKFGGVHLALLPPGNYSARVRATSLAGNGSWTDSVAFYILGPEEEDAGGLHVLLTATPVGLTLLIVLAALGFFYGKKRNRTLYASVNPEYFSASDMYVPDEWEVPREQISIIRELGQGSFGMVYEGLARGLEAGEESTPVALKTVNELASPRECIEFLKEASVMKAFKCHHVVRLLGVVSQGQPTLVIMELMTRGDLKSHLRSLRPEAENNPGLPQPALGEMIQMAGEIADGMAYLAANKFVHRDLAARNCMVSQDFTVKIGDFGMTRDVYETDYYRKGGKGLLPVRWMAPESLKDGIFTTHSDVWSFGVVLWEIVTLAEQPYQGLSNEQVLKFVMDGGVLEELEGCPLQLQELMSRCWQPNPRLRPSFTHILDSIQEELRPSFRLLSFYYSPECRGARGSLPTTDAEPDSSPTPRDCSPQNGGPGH
Sequence of MEKK1 (Q13233 whole entry, species assumed): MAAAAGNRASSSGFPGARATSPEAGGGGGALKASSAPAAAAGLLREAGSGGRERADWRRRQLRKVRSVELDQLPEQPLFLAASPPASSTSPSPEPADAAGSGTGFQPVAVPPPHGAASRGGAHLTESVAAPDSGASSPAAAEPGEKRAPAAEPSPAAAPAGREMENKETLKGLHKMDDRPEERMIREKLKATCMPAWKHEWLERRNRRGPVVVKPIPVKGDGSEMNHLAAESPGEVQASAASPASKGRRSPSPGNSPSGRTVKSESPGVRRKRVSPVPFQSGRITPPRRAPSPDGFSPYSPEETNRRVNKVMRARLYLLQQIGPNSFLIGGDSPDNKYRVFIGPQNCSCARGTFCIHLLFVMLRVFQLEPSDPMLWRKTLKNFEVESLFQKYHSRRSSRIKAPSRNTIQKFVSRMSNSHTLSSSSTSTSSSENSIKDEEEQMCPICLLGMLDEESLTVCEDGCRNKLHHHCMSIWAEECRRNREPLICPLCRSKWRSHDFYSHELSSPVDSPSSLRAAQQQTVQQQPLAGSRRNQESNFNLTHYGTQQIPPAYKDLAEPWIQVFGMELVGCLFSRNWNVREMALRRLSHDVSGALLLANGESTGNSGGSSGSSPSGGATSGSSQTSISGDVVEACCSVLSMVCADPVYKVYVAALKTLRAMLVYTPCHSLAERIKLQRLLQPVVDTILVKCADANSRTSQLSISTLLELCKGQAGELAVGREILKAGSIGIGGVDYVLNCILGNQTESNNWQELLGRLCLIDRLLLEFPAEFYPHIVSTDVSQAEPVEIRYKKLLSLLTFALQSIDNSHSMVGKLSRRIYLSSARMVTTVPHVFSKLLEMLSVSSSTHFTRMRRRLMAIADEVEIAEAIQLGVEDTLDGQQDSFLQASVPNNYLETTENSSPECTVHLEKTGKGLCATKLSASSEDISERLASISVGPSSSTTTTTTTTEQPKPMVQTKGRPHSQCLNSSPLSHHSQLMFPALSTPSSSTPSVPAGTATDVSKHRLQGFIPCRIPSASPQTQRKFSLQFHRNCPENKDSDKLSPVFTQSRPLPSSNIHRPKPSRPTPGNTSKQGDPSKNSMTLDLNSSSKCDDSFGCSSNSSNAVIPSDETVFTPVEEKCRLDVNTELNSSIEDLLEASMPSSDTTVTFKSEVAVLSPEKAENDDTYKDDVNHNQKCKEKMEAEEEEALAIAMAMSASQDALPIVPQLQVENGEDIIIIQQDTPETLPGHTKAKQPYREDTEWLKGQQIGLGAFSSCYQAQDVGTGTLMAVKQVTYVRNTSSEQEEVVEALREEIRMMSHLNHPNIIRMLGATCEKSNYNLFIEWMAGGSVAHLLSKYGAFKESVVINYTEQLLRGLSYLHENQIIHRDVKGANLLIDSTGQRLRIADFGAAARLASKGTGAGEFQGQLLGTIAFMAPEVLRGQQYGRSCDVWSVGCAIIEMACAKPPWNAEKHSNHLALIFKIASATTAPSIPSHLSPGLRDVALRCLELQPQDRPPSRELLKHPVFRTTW

SMILES	remaining activity at 100 µM (IRR; [1])	remaining activity at 100 µM (IRAK1; [1])	remaining activity at 100 µM (TIE2; [1])	remaining activity at 100 µM (MARK1; [1])	remaining activity at 100 µM (MAPKAP-K3; [1])	remaining activity at 100 µM (TSSK1; [1])	remaining activity at 100 µM (MEKK1; [1])	remaining activity at 100 µM (ULK2; [1])	residual kinase activity, IRR (IRR; [1])	residual kinase activity, IRAK1 (IRAK1; [1])	residual kinase activity, TIE2 (TIE2; [1])	residual kinase activity, MARK1 (MARK1; [1])	residual kinase activity, TGFBR1 (TGFBR1; [1])	residual kinase activity, MAPKAP-K3 (MAPKAP-K3; [1])	residual kinase activity, TSSK1 (TSSK1; [1])	residual kinase activity, ULK2 (ULK2; [1])	residual kinase activity, MEKK1 (MEKK1; [1])	other results
CC(=O)Nc1nc2cc(O)ccc2s1 [Compound 01-66, N-(5-hydroxybenzo[d]thiazol-2-yl)acetamide]	–	–	–	–	–	–	–	–	–	–	–	–	–	–	–	–	–	remaining activity at 100 µM (IRR): 30%; remaining activity at 100 µM (IRAK1): 29%; remaining activity at 100 µM (TIE2): 75%; remaining activity at 100 µM (MARK1): 56%; remaining activity at 100 µM (MAPKAP-K3): 39%; remaining activity at 100 µM (TSSK1): 65%; remaining activity at 100 µM (MEKK1): 94%
CC(=O)Nc1nc2ccc(O)cc2s1 [Compound 01-71]	34%	26%	65%	33%	34%	67%	96%	–	–	–	–	–	–	–	–	–	–	–
CC(=O)Nc1nc2ccc(C(F)(F)F)cc2s1 [Compound 01-90]	49%	43%	60%	90%	101%	90%	90%	78%	–	–	–	–	–	–	–	–	–	–
CC(=O)Nc1nc2ccc(C#N)cc2s1 [Compound 01-94]	42%	11%	85%	60%	101%	55%	94%	68%	–	–	–	–	–	–	–	–	–	–
CC(=O)Nc1cccc(NC(=O)c2nc3ccc(O)cc3s2)c1 [Compound 03-07, N-(3-acetamidophenyl)-6-hydroxybenzo[d]thiazole-2-carboxamide]	–	–	–	–	–	–	–	–	–	–	–	–	–	–	–	–	–	remaining activity at 100 µM (IRR; [2]): 75%; remaining activity at 100 µM (IRAK1; [2]): 49%; remaining activity at 100 µM (TIE2; [2]): 78%; remaining activity at 100 µM (MARK1; [2]): 106%; remaining activity at 100 µM (TGFBR1; [2]): 113%; remaining activity at 100 µM (MAPKAP-K3; [2]): 34%; remaining activity at 100 µM (TSSK1; [2]): 57%; remaining activity at 100 µM (ULK2; [2]): 81%; remaining activity at 100 µM (MEKK1; [2]): 115%
O=C(Nc1nc2cc(O)ccc2s1)c1ccncc1 [Compound 03-11]	–	–	–	–	–	–	–	–	86	68	84	90	107	68	97	86	106	–
O=C(Nc1nc2ccc(O)cc2s1)c1ccccn1 [Compound 03-12]	–	–	–	–	–	–	–	–	82	37	76	89	117	31	66	87	127	–
O=C(Nc1nc2cc(O)ccc2s1)c1ccccn1 [Compound 03-13]	–	–	–	–	–	–	–	–	78	38	106	99	109	62	95	56	114	–
COc1ccc2sc(NC(C)=O)nc2c1 [Compound 03-21]	47%	45%	91%	98%	97%	75%	113%	86%	–	–	–	–	–	–	–	–	–	remaining activity at 100 µM (TGFBR1; [1]): 124%
CC(=O)Nc1nc2ccccc2s1 [Compound 03-32]	–	–	–	–	–	–	–	–	63	65	112	77	92	61	83	92	93	–
O=C(Nc1nc2cc(O)ccc2s1)c1cccnc1 [Compound 03-33]	–	–	–	–	–	–	–	–	51	57	100	103	88	97	75	85	107	–
O=C(Nc1nc2ccc(O)cc2s1)c1ccccc1 [Compound 03-60]	–	–	–	–	–	–	–	–	31	26	41	96	93	92	27	69	105	–
CC(=O)Nc1nc2cc(C(F)(F)F)ccc2s1 [Compound 03-73]	61%	85%	92%	88%	93%	71%	111%	88%	–	–	–	–	–	–	–	–	–	remaining activity at 100 µM (TGFBR1; [1]): 118%
